Results reported in US6110955A, “Metabolically stabilized oxyalkylene esters and uses thereof” (Beacon Laboratories, Inc., priority 1997, dated 2000).

Assays:
[1] = system: IMR-32; experiment: Clonogenicity in soft agar (growth inhibition); assay type: cell-based, human; settings: Homo sapiens, read-out: clones relative to media-treated control cultures
Method: (§1) Inhibition of cancer cell growth in agar culture--clonogenicity was tested using cell lines as follows:
(§2) Cells were harvested, washed in complete media, and counted.
(§3) After overnight culture, AB or α-methyl-4-(2-methylpropyl)-benzeneacetyloxymethyl butyrate was added at the indicated concentration. The control cells received media alone.

[2] = system: SK-N-SH; experiment: Clonogenicity in soft agar (growth inhibition); assay type: cell-based, human; settings: Homo sapiens, read-out: clones relative to media-treated control cultures
Method: as §1, §2, §3

[3] = system: NBL-S; experiment: Clonogenicity in soft agar (growth inhibition); assay type: cell-based, human; settings: Homo sapiens
Method: as §1, §2, §3

[4] = system: NBAS-5; experiment: Clonogenicity in soft agar (growth inhibition); assay type: cell-based, human; settings: Homo sapiens
Method: as §1, §2, §3

[5] = system: β-globin disorders (β-thalassemia and sickle-cell anemia); settings: β-thalassemia and sickle-cell anemia patients; cited from earlier work
[6] = system: human neuroblastoma cell lines; experiment: Clonogenicity across the neuroblastoma cell lines (summary); assay type: cell-based
Method: as §1, §2, §3

[7] = system: CFPAC; experiment: Inhibition of cancer cell growth, sulforhodamine B (SRB) method; assay type: cell-based; settings: Homo sapiens
Method: (§4) Inhibition of cancer cell growth was measured by the sulforhodamine B (SRB) method as described by Monks et al., J. Nat. Canc. Inst., (1991), 83: 757-766, incorporated herein in its entirety. The SRB assay is recognized by the National Institute for Cancer (NCI) as a reliable screen for anticancer drugs and is used by the NCI for this purpose. […] (FIGS. 3A-3D).

[8] = system: OVCAR-5; experiment: as above; assay type: cell-based; settings: Homo sapiens
Method: as §4

[9] = system: LOX IMVI; experiment: as above; assay type: cell-based; settings: Homo sapiens
Method: as §4

[10] = system: MCF7; experiment: as above; assay type: cell-based; settings: Homo sapiens
Method: as §4

Compound: CCCC(=O)O [AB, arginine butyrate, reference compound]
- activity at 100 µM ([1]; IMR-32, 100 μM): 108%
- activity at 250 µM ([1]; IMR-32, 250 μM): 104%
- activity at 500 µM ([1]; IMR-32, 500 μM): 69 ± 7%
- activity at 1000 µM ([1]; IMR-32, 1000 μM): 49%
- activity at 2000 µM ([1]; IMR-32, 2000 μM): 21%
- activity at 100 µM ([2]; 100 μM): 99 ± 1%
- activity at 250 µM ([2]; 250 μM): 81 ± 1%
- activity at 500 µM ([2]; 500 μM): 75 ± 9%
- activity at 1000 µM ([2]; 1000 μM): 54 ± 2%
- activity at 2000 µM ([2]; 2000 μM): 24 ± 1%
- IC50 [3]: 701 µM
- IC90 [3]: 2000 µM
- IC50 ([4]; NBAS-5): 833 µM
- activity at 100 µM ([4]; NBAS-5, 100 μM, read-out: clones relative to media-treated control cultures): 85 ± 1%
- activity at 250 µM ([4]; NBAS-5, 250 μM, read-out: clones relative to media-treated control cultures): 78 ± 2%
- activity at 500 µM ([4]; NBAS-5, 500 μM, read-out: clones relative to media-treated control cultures): 68 ± 2%
- activity at 1000 µM ([4]; NBAS-5, 1000 μM, read-out: clones relative to media-treated control cultures): 53%
- activity at 2000 µM ([4]; NBAS-5, 2000 μM, read-out: clones relative to media-treated control cultures): 25%
- reported side effects [5]: hypokalemia, headache, nausea and vomiting
- inhibition of clonogenicity (in words) [6]: dose-dependent manner
- inhibition at 31.25 pM ([7]; dosage 0.03125 nM): 6.6%
- inhibition at 62.5 pM ([7]; dosage 0.06250 nM): 4.8%
- inhibition at 0.000125 µM ([7]; dosage 0.12500 nM): 11.3%
- inhibition at 0.00025 µM ([7]; dosage 0.25000 nM): 1%
- inhibition at 0.0005 µM ([7]; dosage 0.50000 nM): 1.5%
- inhibition at 0.001 µM ([7]; dosage 1.00000 nM): 4.7%
- inhibition at 0.002 µM ([7]; dosage 2.00000 nM): 12.8%
- inhibition at 0.004 µM ([7]; dosage 4.00000 nM): 16.6%
- inhibition at 31.25 pM ([8]; OVCAR-5, dosage 0.03125 nM): 0%
- inhibition at 62.5 pM ([8]; OVCAR-5, dosage 0.06250 nM): 0.1%
- inhibition at 0.000125 µM ([8]; OVCAR-5, dosage 0.12500 nM): 0.5%
- inhibition at 0.00025 µM ([8]; OVCAR-5, dosage 0.25000 nM): 0.3%
- inhibition at 0.0005 µM ([8]; OVCAR-5, dosage 0.50000 nM): 1.3%
- inhibition at 0.001 µM ([8]; OVCAR-5, dosage 1.00000 nM): 2.5%
- inhibition at 0.002 µM ([8]; OVCAR-5, dosage 2.00000 nM): 6.6%
- inhibition at 0.004 µM ([8]; OVCAR-5, dosage 4.00000 nM): 29.3%
- inhibition at 31.25 pM ([9]; dosage 0.03125 nM): 0%
- inhibition at 62.5 pM ([9]; dosage 0.06250 nM): 1.4%
- inhibition at 0.000125 µM ([9]; dosage 0.12500 nM): 1.5%
- inhibition at 0.00025 µM ([9]; dosage 0.25000 nM): 3.1%
- inhibition at 0.0005 µM ([9]; dosage 0.50000 nM): 1.8%
- inhibition at 0.001 µM ([9]; dosage 1.00000 nM): 11.8%
- inhibition at 0.002 µM ([9]; dosage 2.00000 nM): 10.7%
- inhibition at 0.004 µM ([9]; dosage 4.00000 nM): 23.3%
- inhibition at 31.25 pM ([10]; MCF7, dosage 0.03125 nM): 0.3%
- inhibition at 62.5 pM ([10]; MCF7, dosage 0.06250 nM): 0.2%
- inhibition at 0.000125 µM ([10]; MCF7, dosage 0.12500 nM): 0%
- inhibition at 0.00025 µM ([10]; MCF7, dosage 0.25000 nM): 0.1%
- inhibition at 0.0005 µM ([10]; MCF7, dosage 0.50000 nM): 0%
- inhibition at 0.001 µM ([10]; MCF7, dosage 1.00000 nM): 1.2%
- inhibition at 0.002 µM ([10]; MCF7, dosage 2.00000 nM): 1.8%
- inhibition at 0.004 µM ([10]; MCF7, dosage 4.00000 nM): 2.2%
